Results taken from patent US7781594B2, “5-(4-methanesulfonyl-phenyl)-thiazole derivatives for the treatment of acute and chronic inflammatory diseases” (Faes Farma, S.A., priority 2008, dated 2010).

What was measured:
[1] = test system: IFN-gamma; test: IFN-gamma production by PBMC from patients with rheumatoid arthritis, CBA; type: cell-based, human
Experimental: CBA protocol was followed according to the manufacturer's instructions. The election of microparticles was performed following the summary of FIG. 1.
The acquisition on samples was performed with the BD FACS Array Bioanalyser System (FACSArray, Becton Dickinson, San José, Calif., USA) and the analysis of the results was completed with the software FCAP Array (Becton Dickinson) in a PC computer.
Briefly, the experimental protocol consisted of a plate pre-washing out with Wash Buffer. After decantation, the mixture of capture microparticles was re-suspended in the vortex. Standards and samples were added in the adequate dilution. After permanent stirring incubation during 1 h, the PE detection reagent was added and incubated again during 2 h at room temperature. […]
PBMC (5×10^4 cells/well) from 7 patients with rheumatoid arthritis were cultured in duplicate 200 μl of complete medium supplement with the highest solvent concentration (10^−6 M), and 10^−6 M, 10^−7 M and 10^−8 M of compound 12, in the presence and absence either of LPS (10 μg/ml), or anti-CD3 (12.5 ng/ml)+anti-CD28 (⅓×10^5), during 24 hours. Culture supernatants were frozen at −20° C. and IFN-gamma concentration was assessed by BD FACS Array Bioanalyser by using CBA Flex Set, specific to determine IFN-gamma concentration, following the manufacturer instructions.

[2] = test system: TNF-alpha; test: TNF-alpha production by PBMC of healthy volunteers, ELISA; type: cell-based, human
Experimental: In order to quantify the serum cytokines concentration, the extracted blood was stored in tubes both with and without anti-coagulant (collected by antecubital venopunction and arterial catheter, respectively). Blood was allowed to coagulate at room temperature in the laboratory, further separating the serum by centrifugation (600×g during 20 minutes). Supernatant were collected, filtered, divided in aliquotes and stored at −70° C. Concentration assays for different cytokines were performed by using the commercial kits described in Table 2.
Supernatants were unfrozen up to the room temperature and faced against the respective anti-cytokine by fixing them in the plate bottom and incubating them during a variable time. […] The results were assessed with the enzymo-immunoanalysis reader Multititer Plus (Tiertek Multiscan Plus, Flow Laboratories). […]
Effects of compound 12 on TNF-alpha production by PBMC of healthy volunteers in the presence or in the absence of LPS were first investigated. […] Supernatant of cultures were frozen at −20° C. and the concentration of TNF-alpha was quantified with ELISA species-specific (enzyme-linked immunosorbent assay for quantitative detection of tumour necrosis factor-alpha: human TNF-alpha ELISA BM S223/4TEUCE, Bender Med System Inc, Burlinghane Calif. 94010).

## Cc1nc(OC2CCCC2)c(-c2ccc(S(C)(=O)=O)cc2)s1 [Compound 12, 4-cyclopentyloxy-5-(4-methylsulfonyl-phenyl)-2-methyl-thiazole]
[1]; patients with rheumatoid arthritis, 10^−6 M, 10^−7 M and 10^−8 M, p<0.05, FIG. 6
  Effect on IFN-gamma production by PBMC stimulated with anti-CD3 and anti-CD28: significantly lowered
[1]; printed 'from healthy volunteers' in the paragraph on patients with rheumatoid arthritis
  Effect on IFN-gamma secretion by PBMC, spontaneous or LPS-induced: modified neither the spontaneous IFN-gamma secretion nor the LPS-induced
[2]; 10^−6 M and 10^−7 M, LPS, p<0.05 vs vehicle, FIG. 2
  Effect on TNF-alpha concentration in the supernatant of LPS-stimulated PBMC: diminished in a statistically significant manner
[2]; 10^−6 M, no stimulus
  Effect on spontaneous TNF-alpha production by PBMC: lowered the spontaneous TNF-alpha production
